According to patent publication EP1058679B1:

Conditions: from CC[Si](CC)(CC)O[C@@H](CC(=O)O)C(C)(C)C(=O)[C@H](C)[C@@H](OC(=O)OCC(Cl)(Cl)Cl)[C@@H](C)CCC/C(C)=C\C[C@H](O)/C(C)=C/c1csc(C)n1; ester bond; 2,4,6-trichlorobenzoyl chloride, Et3N, DMAP; toluene; 0.79 mM; 25.0 °C; 3.5 h

Compound: CC[Si](CC)(CC)O[C@H]1CC(=O)O[C@H](/C(C)=C/c2csc(C)n2)C/C=C(/C)CCC[C@H](C)[C@H](OC(=O)OCC(Cl)(Cl)Cl)[C@@H](C)C(=O)C1(C)C
- ring closure, yield of all isomers: 78%
